Source: patent US12630505B2, “Alkyne compound, vitamin D compound, analytical method, and production method” (Tokyo University of Agriculture and Technology, priority 2021, dated 2026)

What was measured:
[1] = tested on: Antibody column: 1,25-(OH)2-vitamin D3/D2 Immuno Tube Extraction Kit; experiment: Antibody column fractionation of pooled serum, LC-MS/MS of adsorbed and non-adsorbed fractions; type: binding; conditions: SRM chromatograms FIG. 5B/5C
Method: (4) Sample Pretreatment • (4-1) In a microtube, 200 μL of a calibrator or a pooled serum, 180 μL of IS, and 20 μL of additives were placed, and the whole was stirred to prepare a sample. To the calibrator, 10 μL of an aqueous 1α,25-(OH)2D3 solution (1 ng/mL) and 10 μL of an aqueous 1α,25-(OH)2D3-^13C3 solution (1 ng/mL) were added as the additives. To the pooled serum, 10 μL of an aqueous 1α,25-(OH)2D3-^13C3 solution (1 ng/mL) and 10 μL of water were added. • (4-2) The sample was loaded on an antibody column, and the column sealed with a cap was gently shaken. • (4-3) The sample was rotated and mixed at room temperature for 1 hour with a rotator to be subjected to antigen-antibody reaction. • (4-4) The outlet of the antibody column was released, and the column was centrifuged at 550 g for 2 minutes to collect a non-adsorbed fraction. • (4-5) Into the column, 500 μL of WASHSOL supplied with the antibody column kit was added, and the column was centrifuged at 550 g for 2 minutes. […]

[2] = tested on: Antibody column: 1,25-(OH)2-vitamin D3/D2 Immuno Tube Extraction Kit; experiment: Separation measurement of 4β,25-(OH)2D3: antibody column fractionation of spiked vitamin D free serum, LC-MS/MS of fractions; type: binding; conditions: vitamin D free serum with 4β,25-(OH)2D3 at 50 pg/mL; SRM chromatograms FIG. 4A/4B
Text: • Standard: 4β,25-(OH)2D3 (vitamin D compound 54 produced in Example 1) • Stable isotope-labeled compound: 4β,25-(OH)2D3-d4 (vitamin D compound 52 produced in Example 1) • Vitamin D free serum: MSG1000 (Golden West Biologicals) • Antibody column: 1,25-(OH)2-vitamin D3/D2 Immuno Tube (trademark) Extraction Kit (Immunodiagnostik) • SLE column: Isolute SLE+ column (Biotage) • Derivatization reagent (DAP-PA): JeoQuant Kit for LC-MS/MS Analysis of Vitamin D Metabolites (JEOL) (2) IS (Internal Standard) Solution
An aqueous 4β,25-(OH)2D3-d4 solution was prepared at the concentration shown below.
(3) Sample Pretreatment • (3-1) In a microtube, 200 μL of a vitamin D free serum prepared to have a 4β,25-(OH)2D3 concentration of 50 pg/mL and 30 μL of IS were placed to prepare a sample. • (3-2) The sample was loaded on an antibody column, and the column sealed with a cap was gently shaken. • (3-3) The sample was rotated and mixed at room temperature for 1 hour with a rotator to be subjected to antigen-antibody reaction. • (3-4) The outlet of the antibody column was released, and the column was centrifuged at 550 g for 2 minutes to collect a non-adsorbed fraction. • (3-5) Into the column, 500 μL of WASHSOL supplied with the antibody column kit was added, and the column was centrifuged at 550 g for 2 minutes. […]

Compound	Fraction of the antibody column in which the compound was collected [1]	Fraction of the antibody column that contains the compound [2]
C=C1/C(=C\C=C2/CCC[C@]3(C)[C@@H]([C@H](C)CCCC(C)(C)O)CC[C@@H]23)C[C@@H](O)C[C@@H]1O [1α,25(OH)2D3, 1α,25-dihydroxyvitamin D3]	collected in the adsorbed fraction	
C=C1CC[C@H](O)[C@H](O)/C1=C/C=C1\CCC[C@]2(C)[C@@H]([C@H](C)CCCC(C)(C)O)CC[C@@H]12 [4β,25-(OH)2D3, 4β,25-dihydroxyvitamin D3]	collected in the non-adsorbed fraction	only in the non-adsorbed fraction
